Legend:
[1] = tested on: slow skeletal muscle troponin; conditions: cited from earlier work
[2] = tested on: patients with ALS; assay: BENEFIT-ALS clinical trial: Sniff Nasal Inspiratory Pressure (SNIP); type: in vivo, human
Description: (§1) BENEFIT-ALS was a multi-national, randomized, stratified, double-blind, placebo-controlled, parallel-group study of tirasemtiv in patients with ALS. The study consisted of a screening period, an open-label/lead-in period, and a double-blind treatment period. Following screening, eligible patients received open-label tirasemtiv, 125 mg BID, for 7 days. Patients who tolerated the 7-day lead-in period were randomized in a 1:1 ratio to tirasemtiv or placebo. Over the first 3 weeks of double-blind treatment, patients randomized to tirasemtiv had their TDD up-titrated as follows: 250 mg for 7 days, then 375 mg for 7 days, then 500 mg for 7 days. […] However, in such cases, dose escalation was re-attempted at least one additional time. The highest tolerable tirasemtiv dose for each individual patient was the dose that patient received for the remaining 9 weeks (i.e., the maximum tolerated dose [MTD] phase) of the study. Patients randomized to placebo underwent a corresponding dummy dose titration.
(§2) Randomization was stratified by riluzole use. […] Clinical assessments occurred every 4 weeks during double-blind treatment; patients also returned for follow-up evaluations at 1 and 4 weeks after their final dose of double-blind study medication (FIG. 1).
(§3) The secondary objectives included assessments of the effect of tirasemtiv versus placebo on measures of respiratory function (Maximum Voluntary Ventilation (MVV), Sniff Nasal Inspiratory Pressure (SNIP), SVC) and skeletal muscle function including handgrip fatigue and muscle-strength mega-score (i.e., the average z-score for muscle strength measurements across the following tested bilateral muscle groups: elbow flexion, wrist extension, knee extension, ankle dorsiflexion, and handgrip)). Secondary endpoints included the changes from baseline in each of the above mentioned measures (MVV, SNIP, SVC, and muscle-strength mega-score) for the Modified FAS, and the slope of each of the measures from baseline to Week 12 for the Modified FAS.
(§4) Eligible patients were males and females, 18 years of age and older, with a diagnosis of familial or sporadic ALS and meeting the World Federation of Neurology El Escorial criteria of definite ALS, probable ALS, laboratory-supported probable ALS, or possible ALS. Patients were to have an upright SVC>50% of predicted for age, height, and sex, a diminished, but measurable, maximum voluntary grip strength in at least one hand (i.e., between 10-50 pounds for females and 10-70 pounds for males), and at least 4 of the 12 ALSFRS-R questions were to have been scored as a 2 or 3. Patients were to be able to swallow tablets without crushing, and in the opinion of the investigator, were expected to do so for the duration of the study. If the patient needed a caregiver, the caregiver was to be able to observe the patient's status. Clinical laboratory results were to be either within their respective normal ranges or if outside the normal range, deemed not clinically significant by the investigator. […] Patients not taking riluzole prior to study entry were not permitted to take riluzole at any dose during the course of the study.
(§5) Safety data presented were based on the safety analysis set, defined as all patients who received at least 1 dose of double-blind study drug. Of the 605 randomized patients, 596 (295 placebo, 301 tirasemtiv) received at least 1 dose of double-blind study drug and were included in the safety analysis set. Data for the primary and secondary efficacy endpoints were analyzed with the Modified FAS. This analysis set included all patients who received at least 1 dose of double-blind study drug and had at least 1 efficacy assessment during the double-blind treatment period, and excluded 156 patients who were randomized in blocks containing patients affected by a study drug assignment error in which 58 patients randomized to and treated with double-blind tirasemtiv were dispensed double-blind placebo instead. […]

[3] = tested on: patients with ALS; assay: BENEFIT-ALS clinical trial: handgrip fatigue at 60% of target in the weaker hand; type: in vivo, human
Description: as §1, §2, §3, §4, §5

[4] = biological target: T1, CYP 1A2 (Homo sapiens, UniProt P05177); conditions: cited from earlier work
T1 sequence (P05177 1-516): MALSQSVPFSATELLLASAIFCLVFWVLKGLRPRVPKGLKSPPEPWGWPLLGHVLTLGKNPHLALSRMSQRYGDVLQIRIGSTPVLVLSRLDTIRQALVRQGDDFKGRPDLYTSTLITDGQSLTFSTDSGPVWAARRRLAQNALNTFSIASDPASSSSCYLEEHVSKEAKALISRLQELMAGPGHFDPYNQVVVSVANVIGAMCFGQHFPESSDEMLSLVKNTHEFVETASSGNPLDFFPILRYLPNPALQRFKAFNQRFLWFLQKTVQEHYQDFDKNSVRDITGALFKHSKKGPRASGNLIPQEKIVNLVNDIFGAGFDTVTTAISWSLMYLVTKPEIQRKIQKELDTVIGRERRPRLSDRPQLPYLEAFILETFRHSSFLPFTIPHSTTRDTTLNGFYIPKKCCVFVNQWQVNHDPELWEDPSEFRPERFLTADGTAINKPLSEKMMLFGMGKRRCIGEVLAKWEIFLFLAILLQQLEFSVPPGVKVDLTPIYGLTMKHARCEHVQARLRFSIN

[5] = BENEFIT-ALS clinical trial: body weight; type: in vivo; conditions: N=178
Description: as §1
Safety data presented were based on the safety analysis set, defined as all patients who received at least 1 dose of double-blind study drug. Of the 605 randomized patients, 596 (295 placebo, 301 tirasemtiv) received at least 1 dose of double-blind study drug and were included in the safety analysis set. Data for the primary and secondary efficacy endpoints were analyzed with the Modified FAS. This analysis set included all patients who received at least 1 dose of double-blind study drug and had at least 1 efficacy assessment during the double-blind treatment period, and excluded 156 patients who were randomized in blocks containing patients affected by a study drug assignment error in which 58 patients randomized to and treated with double-blind tirasemtiv were dispensed double-blind placebo instead. Based on these criteria, the Modified FAS consisted of 388 patients (210 placebo, 178 tirasemtiv).

[6] = tested on: patients with ALS; assay: BENEFIT-ALS clinical trial: slow vital capacity (SVC); type: in vivo, human
Description: as §1, §2, §3, §4, §5

[7] = tested on: patients with ALS; assay: BENEFIT-ALS clinical trial: muscle strength mega-score; type: in vivo, human; conditions: for Muscle strength mega-score change from baseline (LS mean): based on percent change from baseline across several muscle groups
Description: as §1, §2, §3, §4, §5

SMILES: C#Cc1cnc2nc(O)n(C(CC)CC)c2n1 [Tirasemtiv, 6-ethynyl-1-(pentan-3-yl)-1H-imidazo[4,5-b]pyrazin-2(3H)one]
- Effect on slow skeletal muscle troponin [1]: little effect
- SNIP slope from baseline to Week 12 ([2]; Modified FAS N=178): −0.053
- SNIP change from baseline (LS mean) ([2]; Week 4, Modified FAS N=178): −4.33 cm H2O
- SNIP change from baseline (LS mean) ([2]; Week 8, Modified FAS N=178): −3.55 cm H2O
- SNIP change from baseline (LS mean) ([2]; Week 12, Modified FAS N=178): −5.03 cm H2O
- SNIP versus placebo, in words ([2]; p=0.012 and 0.050): statistically significantly greater decrease in SNIP at Weeks 4 and 8
- SNIP difference in slope (tirasemtiv vs placebo) ([2]; p=0.2108): −0.0312
- Handgrip fatigue slope from baseline to Week 12 ([3]; Modified FAS N=178): 0.0458
- Handgrip fatigue at 60% of target in the weaker hand, change from baseline (LS mean) ([3]; Week 4, Modified FAS N=178): -1.77 s
- Handgrip fatigue at 60% of target in the weaker hand, change from baseline (LS mean) ([3]; Week 8, Modified FAS N=178): 4.60 s
- Handgrip fatigue at 60% of target in the weaker hand, change from baseline (LS mean) ([3]; Week 12, Modified FAS N=178): -0.57 s
- Handgrip fatigue versus placebo, in words ([3]; human, in vivo): no statistically significant difference between treatment groups
- Handgrip fatigue difference in slope (tirasemtiv vs placebo) ([3]; p=0.6372): 0.0332
- Effect on CYP 1A2 [4]: inhibited
- Weight change from baseline, LS mean ([5]; Week 4): -0.83 kg
- Weight change from baseline, LS mean ([5]; Week 8): -1.30 kg
- Weight change from baseline, LS mean ([5]; Week 12): -1.70 kg
- SVC slope of changes from baseline to Week 12 ([6]; Modified FAS N=178): −0.0394
- SVC change from baseline (LS mean) ([6]; Week 4, Modified FAS N=178): −0.99 % predicted
- SVC change from baseline (LS mean) ([6]; Week 8, Modified FAS N=178): −2.85 % predicted
- SVC change from baseline (LS mean) ([6]; Week 12, Modified FAS N=178): −3.12 % predicted
- SVC change from baseline (LS mean), post-treatment ([6]; Week 13, 1 week after last dose of double-blind study drug): −3.75 % predicted
- SVC change from baseline (LS mean), post-treatment ([6]; Week 16, 4 weeks after last dose of double-blind study drug): −5.39 % predicted
- LS mean±SE change from baseline in SVC ([6]; after 12 weeks of treatment): −3.12%
- SVC difference in slope (tirasemtiv vs placebo) ([6]; baseline to Week 12, p=0.0006): 0.051
- Treatment difference in change from baseline to average SVC after 8 and 12 weeks ([6]; subgroup: baseline SVC>median at baseline, p<0.0001): 6.02%
- Treatment difference in change from baseline to average SVC after 8 and 12 weeks ([6]; subgroup: females, p=0.012): 6.84%
- Treatment difference in change from baseline to average SVC after 8 and 12 weeks ([6]; subgroup: non-riluzole users, p=0.0005): 6.55%
- Effect on decline of SVC, in words ([6]; versus placebo): statistically significant and potentially clinically meaningful reduction in the decline of SVC
- Muscle strength mega-score slope from baseline to Week 12 ([7]; Modified FAS N=178): −0.1104
- Muscle strength mega-score change from baseline (LS mean) ([7]; Week 4): −4.36
- Muscle strength mega-score change from baseline (LS mean) ([7]; Week 8): −7.43
- Muscle strength mega-score change from baseline (LS mean) ([7]; Week 12): −10.78
- Muscle strength mega-score difference in slope (tirasemtiv vs placebo) ([7]; p=0.0158): 0.1647
- Muscle strength mega-score decline versus placebo, in words ([7]; p=0.0158 for the difference in slope): declined more slowly

Reference: patent US20170042890A1, “METHODS OF REDUCING DECLINE IN VITAL CAPACITY” (Cytokinetics, Inc., priority 2014, published 2017)
